Measurements reported in patent publication US20120122843A1, “Compounds and Their Use for Treatment of Amyloid Beta-Related Diseases” (ASTRAZENECA AB, priority 2010, published 2012).

Tests used:
[1] = tested on: Aβ42; assay: Aβ42 release from HEK cells stably expressing APPswe (MSD electrochemiluminescence); type: cell-based, Human; settings: 4-6 h incubation with test compound, Aβ42 secreted to cell medium
Method: The level of activity of the compounds on Aβ formation was tested using the following method:
Compounds were diluted in 100% DMSO and stored at […] prior to use. Human Embryonic Kidney (HEK) cell line stably expressing APP with the Swedish mutation (APPswe) were cultured using Dulbecco's Modified Eagles medium (DMEM) supplied with […] glucose, Na-pyruvate and GlutaMAX with 10% FBS, 100 U/ml penicillin-streptomycin (PEST) respectively, 1× non-essential amino acids (NEAA), […] Hepes, 100 μg/ml Zeocine. Cells at about 80% confluence were washed with PBS, detached from culture flasks using 1× Trypsin/EDTA diluted in PBS, re-suspended in cell media and plated in 384-well poly-d-lysine coated cell culture plates at about 10000-15000 cells/well, in 25 μL cell media. Optionally, cryo-preserved cells (frozen and stored at −140° C. in 90% cell media and 10% DMSO) were thawed, washed and plated as above. Next the cells were incubated for 15-24 h at 37° C. and 5% CO2, after which cell medium was changed. Fresh medium containing test compound diluted ×200 from prepared compound plate was added to the cells before further incubation for 4-6 hours at 37° C. and 5% CO2. After incubation with test compound the amount of Aβ peptides, including Aβ42, Aβ40, Aβ39, Aβ38 and Aβ37, as well as total Aβ levels, secreted to cell medium was analyzed using the electrochemiluminescence assay technology from Meso Scale Discovery (MSD), in combination with specific antibodies raised against the different Aβ peptides. Aβ42, Aβ40 and Aβ38 antibodies were purchased from MSD and Aβ37 and Aβ39 were made in house. Total Aβ was measured using a combination of 6E10 and 4G8 anti Aβ antibodies from MSD. Potential cytotoxic effects of the compounds were usually assayed by measuring the ATP content (ViaLight) from cell lysate.

[2] = tested on: Notch; assay: Release and translocation of Notch intracellular domain into the nucleus, HEK/AENotch cells (NICD immunostaining, ImageXpress); type: cell-based, Human; settings: 3 μM Lactacystin, 4-6 h incubation, nucleus/cytosol NICD fluorescence ratio
Method: The level of activity of the compounds on release and translocation of Notch intracellular domain into the cell nucleus was tested using the following method:
Compounds were diluted in 100% DMSO and stored at […] prior to use. Human Embryonic Kidney cell line overexpressing Notchl-E-human-myc construct (referred to as HEK/AENotch) were cultured in T75 cm^2 or T225 cm^2 cell culture flasks using Dulbecco's Modified Eagles medium (DMEM) supplemented with […] glucose, Na-pyruvate and GlutaMAX with 10% FBS, 100 U/ml penicillin-streptomycin (PEST) respectively, 1× non-essential amino acids (NEAA), […] Hepes and 100 μg/ml Hygromycin. Cells at about 80% confluence were washed with PBS, detached from the flask bottom using 1× Trypsin/EDTA diluted in PBS, re-suspended in cell media and plated in 384-well plates at about 10000 cells/well, in 25 μL cell media. Optionally, cryo-preserved cells (frozen and stored at −140° C. in 90% cell media and 10% DMSO) were thawed, washed and plated as above. Next the cells were incubated for 15-24 h at 37° C. and 5% CO2, after which cell medium was replaced with fresh medium containing 3 μM Lactacystin and test compound diluted ×200 from prepared compound plate giving 0.5% final DMSO concentration, and the highest compound concentration typically 25 μM. Cells were then incubated 4-6 h with test compound before being fixed, washed and immunostained with NICD antibody (rabbit Notch 1 (C-20)). Image acquisition of cytosolic/membrane and nuclear fluorescence as well as subsequent analysis of the nucleus and cytosolic fluorescence ratio was carried out using ImageXpress. Potential cytotoxic effects of the compounds were usually assayed by analysis of nucleus area or cell number.

[3] = Homo sapiens, HEK293, HEK cells expressing APPswe

Structure (SMILES) | IC50 [1, 3] [µM] | IC50 ([2]; Homo sapiens) [µM] | IC50 ([1]; HEK cells expressing APPswe) [µM] | IC50 [2] [µM]
COc1nc(Nc2ccc3c(n2)O[C@H](c2ccc(F)cn2)CN(C)C3C)ccc1-n1cnc(C)c1 (single isomer, unassigned; (-)) [Example 52] | 0.01 | 7.2 | – | –
CN1Cc2ccc(Nc3ccc(-c4cnn(C)c4)cn3)nc2O[C@H](c2ccccc2)C1 [Example 15, (R)-4-Methyl-N-(5-(1-methyl-1H-pyrazol-4-yl)pyridin-2-yl)-2-phenyl-2,3,4,5-tetrahydropyrido[3,2-f][1,4]oxazepin-8-amine] | 0.137 | – | – | –
COc1nc(Nc2cc(C)c3c(n2)OC(CC(F)(F)F)CN(C)C3)ccc1-c1cnn(C)c1 (centres unmarked) [Example 2, N-(6-Methoxy-5-(1-methyl-1H-pyrazol-4-yl)pyridin-2-yl)-4,6-dimethyl-2-(2,2,2-trifluoroethyl)-2,3,4,5-tetrahydropyrido[3,2-f][1,4]oxazepin-8-amine] | 0.023 | 1.14 | – | –
COc1nc(Nc2ccc3c(n2)OC(C2CC(F)(F)C2)CN(C)C3)ccc1-c1cnn(C)c1 (single isomer, unassigned) [Example 38, 2-(3,3-Difluorocyclobutyl)-N-(6-methoxy-5-(1-methyl-1H-pyrazol-4-yl)pyridin-2-yl)-4-methyl-2,3,4,5-tetrahydropyrido[3,2-f][1,4]oxazepin-8-amine] | – | – | 0.015 | > 25
COc1nc(Nc2cc(C)c3c(n2)OC(C2CCCO2)CN(C)C3)ccc1-c1cnn(C)c1 (single isomer, unassigned) [Example 26, N-(6-Methoxy-5-(1-methyl-1H-pyrazol-4-yl)pyridin-2-yl)-4,6-dimethyl-2-(tetrahydrofuran-2-yl)-2,3,4,5-tetrahydropyrido[3,2-f][1,4]oxazepin-8-amine] | – | – | 0.056 | > 7.9
COc1nc(Nc2ccc3c(n2)OC(CC(F)(F)F)CN(C)C3C)ccc1-c1cnn(C)c1 (single isomer, unassigned) [Example 36, N-(6-Methoxy-5-(1-methyl-1H-pyrazol-4-yl)pyridin-2-yl)-4,5-dimethyl-2-(2,2,2-trifluoroethyl)-2,3,4,5-tetrahydropyrido[3,2-f][1,4]oxazepin-8-amine] | – | – | 0.012 | > 25
COc1nc(Nc2ccc3c(n2)OC(CC(F)(F)F)CN(C)C3)ccc1-c1ccc(=O)n(C)c1 (single isomer, unassigned) [Example 44, 5-(2-Methoxy-6-(4-methyl-2-(2,2,2-trifluoroethyl)-2,3,4,5-tetrahydropyrido[3,2-f][1,4]oxazepin-8-ylamino)pyridin-3-yl)-1-methylpyridin-2(1H)-one] | – | – | 0.374 | –
COc1nc(Nc2ccc3c(n2)OC(c2ncc(C)s2)CN(C)C3)ccc1-c1cnn(C)c1 (centres unmarked) [Example 39, N-(6-Methoxy-5-(1-methyl-1H-pyrazol-4-yl)pyridin-2-yl)-4-methyl-2-(5-methylthiazol-2-yl)-2,3,4,5-tetrahydropyrido[3,2-f][1,4]oxazepin-8-amine] | 0.028 | > 25 | – | –
COc1nc(Nc2ccc3c(n2)OC(CC(F)(F)F)CN(C)C3)ccc1-c1ccnc(C)n1 (centres unmarked) [Example 46, N-[6-Methoxy-5-(2-methylpyrimidin-4-yl)-2-pyridyl]-4-methyl-2-(2,2,2-trifluoroethyl)-3,5-dihydro-2H-pyrido[3,2-f][1,4]oxazepin-8-amine] | 0.033 | > 25 | – | –
COc1nc(Nc2ccc3c(n2)O[C@H](c2ccccc2)CN(C)C3)ccc1-c1ccc(=O)n(C)c1 [Example 45, (R)-5-(2-Methoxy-6-(4-methyl-2-phenyl-2,3,4,5-tetrahydropyrido[3,2-f][1,4]oxazepin-8-ylamino)pyridin-3-yl)-1-methylpyridin-2(1H)-one] | 0.038 | – | – | –
COc1nc(Nc2ccc3c(n2)OC(c2nc(C)cs2)C(C)N(C)C3)ccc1-c1cnn(C)c1 (single isomer, unassigned) [Example 29, N-(6-Methoxy-5-(1-methyl-1H-pyrazol-4-yl)pyridin-2-yl)-3,4-dimethyl-2-(4-methylthiazol-2-yl)-2,3,4,5-tetrahydropyrido[3,2-f][1,4]oxazepin-8-amine] | – | – | 0.068 | 5
COc1nc(Nc2ccc3c(n2)OC(CC(F)(F)F)CN(C)C3)ccc1-c1cnc(C)o1 (single isomer, unassigned) [Example 64, N-[6-Methoxy-5-(2-methyloxazol-5-yl)-2-pyridyl]-4-methyl-2-(2,2,2-trifluoroethyl)-3,5-dihydro-2H-pyrido[3,2-f][1,4]oxazepin-8-amine] | – | – | 0.004 | –
COc1nc(Nc2ccc3c(n2)OC(CC(F)(F)F)CN(C)C3C)ccc1-c1cnn(C)c1 (single isomer, unassigned) [Example 34, N-(6-Methoxy-5-(1-methyl-1H-pyrazol-4-yl)pyridin-2-yl)-4,5-dimethyl-2-(2,2,2-trifluoroethyl)-2,3,4,5-tetrahydropyrido[3,2-f][1,4]oxazepin-8-amine] | – | – | 0.016 | > 25
COc1nc(Nc2ccc3c(n2)OC(c2nc(C)cs2)CN(C)C3)ccc1-c1cnn(C)c1 (centres unmarked) [Example 9, N-(6-Methoxy-5-(1-methyl-1H-pyrazol-4-yl)pyridin-2-yl)-4-methyl-2-(4-methylthiazol-2-yl)-2,3,4,5-tetrahydropyrido[3,2-f][1,4]oxazepin-8-amine] | 0.019 | > 15.8 | – | –
Cc1cn(-c2ccc(Nc3ccc4c(n3)OC(CC(F)(F)F)CN(C)C4)nc2C#N)cn1 (centres unmarked) [Example 48] | 0.061 | > 25 | – | –
COc1nc(Nc2ccc3c(n2)OC(C2CC2)CN(C)C3C)ccc1-c1cnn(C)c1 (single isomer, unassigned) [Example 19, 2-Cyclopropyl-N-(6-methoxy-5-(1-methyl-1H-pyrazol-4-yl)pyridin-2-yl)-4,5-dimethyl-2,3,4,5-tetrahydropyrido[3,2-f][1,4]oxazepin-8-amine] | – | – | 0.124 | –
COc1nc(Nc2cc(C)c3c(n2)OC(c2nc(C)cs2)CN(C)C3)ccc1-c1cnn(C)c1 (single isomer, unassigned) [Example 21, N-(6-Methoxy-5-(1-methyl-1H-pyrazol-4-yl)pyridin-2-yl)-4,6-dimethyl-2-(4-methylthiazol-2-yl)-2,3,4,5-tetrahydropyrido[3,2-f][1,4]oxazepin-8-amine] | – | – | 0.179 | –
COc1nc(Nc2ccc3c(n2)OC(CC(F)(F)F)CN(C)C3)ccc1-c1cnc(C)o1 (single isomer, unassigned) [Example 63, N-[6-Methoxy-5-(2-methyloxazol-5-yl)-2-pyridyl]-4-methyl-2-(2,2,2-trifluoroethyl)-3,5-dihydro-2H-pyrido[3,2-f][1,4]oxazepin-8-amine] | 0.003 | – | – | –
COc1nc(Nc2ccc3c(n2)OC(c2nc(C)cs2)CN(C)C3)ccc1-c1cnn(C)c1 (single isomer, unassigned; (+)) [Example 10, (+)-N-(6-Methoxy-5-(1-methyl-1H-pyrazol-4-yl)pyridin-2-yl)-4-methyl-2-(4-methylthiazol-2-yl)-2,3,4,5-tetrahydropyrido[3,2-f][1,4]oxazepin-8-amine] | – | – | 0.226 | –
COc1nc(Nc2ccc3c(n2)OC(c2ncccc2C)CN(C)C3)ccc1-c1cnn(C)c1 (centres unmarked) [Example 16, N-(6-Methoxy-5-(1-methyl-1H-pyrazol-4-yl)pyridin-2-yl)-4-methyl-2-(3-methylpyridin-2-yl)-2,3,4,5-tetrahydropyrido[3,2-f][1,4]oxazepin-8-amine] | 0.305 | – | – | –
COc1nc(Nc2ccc3c(n2)OC(CC(F)(F)F)CN(C)C3)ccc1-c1ccc(=O)n(C)c1 (single isomer, unassigned) [Example 43, 5-(2-Methoxy-6-(4-methyl-2-(2,2,2-trifluoroethyl)-2,3,4,5-tetrahydropyrido[3,2-f][1,4]oxazepin-8-ylamino)pyridin-3-yl)-1-methylpyridin-2(1H)-one] | 0.493 | – | – | –
